Common to all, as to assay: relative viability (nuclei count vs DMSO), 5 days (fraction); higher = more cells survive
Compound in the assay “Midostaurin + Navitoclax”: CO[C@@H]1[C@H](N(C)C(=O)c2ccccc2)C[C@H]2O[C@]1(C)n1c3ccccc3c3c4c(c5c6ccccc6n2c5c31)C(=O)NC4 [Midostaurin] + CC1(C)CCC(c2ccc(Cl)cc2)=C(CN2CCN(c3ccc(C(=O)NS(=O)(=O)c4ccc(N[C@H](CCN5CCOCC5)CSc5ccccc5)c(S(=O)(=O)C(F)(F)F)c4)cc3)CC2)C1 [Navitoclax] (partner 0.5 µM)
The method in brief:
(§1)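 Five library-drug doses in √10 steps were combined with a fixed anchor-drug dose, or a single drug was given alone, by pin tool to lung cancer cell lines in 1536-well plates the day after seeding. Nuclei were stained and counted after 5 days. Relative viability is the nuclei count in treated wells over that in vehicle wells, taken as the median of duplicate plates.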

Compound in assay [1]: COc1cc(-c2nn([C@H]3CC[C@H](N4CCN(C(C)=O)CC4)CC3)c3ncnc(N)c23)ccc1NC(=O)c1cc2ccccc2n1C + CC(C)C[C@H](NC(=O)[C@H](Cc1ccccc1)NC(=O)c1cnccn1)B(O)O [Bortezomib] (partner 0.002 µM)
The method, boiled down: as §1

Compound in assay [2]: COc1cc(-c2nn([C@H]3CC[C@H](N4CCN(C(C)=O)CC4)CC3)c3ncnc(N)c23)ccc1NC(=O)c1cc2ccccc2n1C + Cc1nc(Nc2ncc(C(=O)Nc3c(C)cccc3Cl)s2)cc(N2CCN(CCO)CC2)n1 [Dasatinib] (partner 0.075 µM)
The method, boiled down: as §1

Compound in assay [3]: COc1cc(-c2nn([C@H]3CC[C@H](N4CCN(C(C)=O)CC4)CC3)c3ncnc(N)c23)ccc1NC(=O)c1cc2ccccc2n1C + Cc1cc(Nc2cc(N3CCN(C)CC3)nc(Sc3ccc(NC(=O)C4CC4)cc3)n2)n[nH]1 [Tozasertib] (partner 0.1 µM)
The method in brief:
as §1

Compound in assay [4]: COc1cc(-c2nn([C@H]3CC[C@H](N4CCN(C(C)=O)CC4)CC3)c3ncnc(N)c23)ccc1NC(=O)c1cc2ccccc2n1C + O=C(c1cc(Cc2n[nH]c(=O)c3ccccc23)ccc1F)N1CCN(C(=O)C2CC2)CC1 [Olaparib] (partner 8 µM)
The method in brief:
as §1

Consider UMC-11, for which the relative viability in the assay with Midostaurin + Navitoclax (first compound 0.01 µM) came to 0.32; with Midostaurin + Navitoclax (first compound 0.03162 µM), 0.346; with Midostaurin + Navitoclax (first compound 0.1 µM), 0.241; with Midostaurin + Navitoclax (first compound 0.3162 µM), 0.177; in assay [1] (first compound 0.0128 µM), 0.728; in assay [1] (first compound 0.04048 µM), 0.687. The relative viability in assay [1] (first compound 0.128 µM) was 0.668; in assay [1] (first compound 1.28 µM), 0.655; in assay [2] (first compound 0.0128 µM), 0.49; in assay [2] (first compound 0.04048 µM), 0.468; in assay [2] (first compound 0.128 µM), 0.42; in assay [2] (first compound 1.28 µM) it was 0.446. The relative viability in assay [3] (first compound 0.0128 µM) amounted to 0.225; in assay [3] (first compound 0.04048 µM) it was 0.19; in assay [3] (first compound 0.128 µM), 0.197; in assay [3] (first compound 1.28 µM) it was 0.193; in assay [4] (first compound 0.0128 µM), 0.388; in assay [4] (first compound 0.04048 µM), 0.464. In addition, the relative viability in assay [4] (first compound 0.128 µM) worked out at 0.342; in assay [4] (first compound 1.28 µM) it was 0.362.

(Values after the supplement of paper PMC10307832.)
